According to ChEMBL document CHEMBL1201862, “PubChem BioAssay data set” (2004):
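Cultured in 96-well plates, cells were exposed to test compound for 48 hours across five concentrations. GI50 = concentration required for 50% inhibition of growth.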 The source made the active and inactive calls. Rule as the data show it: active = GI50 up to about 1.1 µM and inactive = higher.

Experiments:
Assay in all cases: NCI-60 cell line screen, 48 h
786-0 = test system: 786-0
A498 = test system: A498
ACHN = test system: ACHN
EKVX = test system: EKVX
K562 = test system: K562
LOX IMVI = test system: LOX IMVI
Malme-3M = test system: Malme-3M
NCI-H226 = test system: NCI-H226
OVCAR-4 = test system: OVCAR-4
OVCAR-5 = test system: OVCAR-5
SF-295 = test system: SF-295
SF-539 = test system: SF-539
SK-MEL-28 = test system: SK-MEL-28
SK-MEL-2 = test system: SK-MEL-2
SNB-19 = test system: SNB-19
SNB-75 = test system: SNB-75
UACC-257 = test system: UACC-257
UO-31 = test system: UO-31
HL-60 = test system: HL-60

| SMILES | GI50 (786-0) | GI50 (A498) | GI50 (ACHN) | GI50 (EKVX) | GI50 (K562) | GI50 (LOX IMVI) | GI50 (Malme-3M) | GI50 (NCI-H226) | GI50 (OVCAR-4) | GI50 (OVCAR-5) | GI50 (SF-295) | GI50 (SF-539) | GI50 (SK-MEL-28) | GI50 (SK-MEL-2) | GI50 (SNB-19) | GI50 (SNB-75) | GI50 (UACC-257) | GI50 (UO-31) | GI50 (HL-60) |
| --- | --- | --- | --- | --- | --- | --- | --- | --- | --- | --- | --- | --- | --- | --- | --- | --- | --- | --- | --- |
| CCOCN1COCN(C)C1=O | > 100 µM (inactive) | > 100 µM (inactive) | > 100 µM (inactive) | > 100 µM (inactive) | > 100 µM (inactive) | > 100 µM (inactive) | > 100 µM (inactive) | > 100 µM (inactive) | > 100 µM (inactive) | > 100 µM (inactive) | > 100 µM (inactive) | > 100 µM (inactive) | > 100 µM (inactive) | > 100 µM (inactive) | > 100 µM (inactive) | > 100 µM (inactive) | > 100 µM (inactive) | > 100 µM (inactive) |  |
| COc1ccc(C(=O)/C(=N/Nc2ccccc2)c2ccc(OC)cc2)cc1 | > 100 µM (inactive) |  | 33.9 µM (inactive) | > 100 µM (inactive) | 20.4 µM (inactive) |  | > 100 µM (inactive) | > 100 µM (inactive) | > 100 µM (inactive) | > 100 µM (inactive) | > 100 µM (inactive) | > 100 µM (inactive) | > 100 µM (inactive) | > 100 µM (inactive) | > 100 µM (inactive) | 27 µM (inactive) | > 100 µM (inactive) | > 100 µM (inactive) |  |
| COc1cc(OC)c(OC)cc1/C=N/NC(=O)N/N=C/c1cc(OC)c(OC)cc1OC | > 100 µM (inactive) | > 100 µM (inactive) | > 100 µM (inactive) | > 100 µM (inactive) | > 100 µM (inactive) | > 100 µM (inactive) | > 100 µM (inactive) | > 100 µM (inactive) | > 100 µM (inactive) | > 100 µM (inactive) | > 100 µM (inactive) | 33.6 µM (inactive) | > 100 µM (inactive) | > 100 µM (inactive) | > 100 µM (inactive) | 15.8 µM (inactive) | > 100 µM (inactive) | > 100 µM (inactive) |  |
| Cc1ccc(/C=C/C(=O)C(C)(C)CN2CCCCC2)cc1 | 6 µM (inactive) | 6.24 µM (inactive) | 11.2 µM (inactive) | 3.18 µM (inactive) | 2.27 µM (inactive) | 9.55 µM (inactive) | 13.3 µM (inactive) | 13.2 µM (inactive) | 10.1 µM (inactive) | 15.2 µM (inactive) | 7.8 µM (inactive) | 4.6 µM (inactive) | 16.4 µM (inactive) | 10.7 µM (inactive) | 2.57 µM (inactive) | 5.37 µM (inactive) | 7.76 µM (inactive) | 10.3 µM (inactive) |  |
| Cn1c(=O)nc2n(-c3cc(Cl)ccc3Cl)c3ccccc3nc-2c1=O | 8.45 µM (inactive) | 18.6 µM (inactive) | 0.906 µM (active) | 3.88 µM (inactive) | 6.4 µM (inactive) |  | 3.78 µM (inactive) | 7.69 µM (inactive) | 4.33 µM (inactive) | 13 µM (inactive) | 7.62 µM (inactive) | 5.92 µM (inactive) |  | 5.62 µM (inactive) | 4.67 µM (inactive) | 11.2 µM (inactive) | 2.18 µM (inactive) | 13.6 µM (inactive) |  |
| Cc1nc2c(O)nc3ccccc3c2o1 | > 100 µM (inactive) | > 100 µM (inactive) | > 100 µM (inactive) | 48.9 µM (inactive) |  | > 100 µM (inactive) | > 100 µM (inactive) | > 100 µM (inactive) | > 100 µM (inactive) | > 100 µM (inactive) | > 100 µM (inactive) | > 100 µM (inactive) | > 100 µM (inactive) | > 100 µM (inactive) | > 100 µM (inactive) | > 100 µM (inactive) | > 100 µM (inactive) | > 100 µM (inactive) | > 100 µM (inactive) |
| Cc1nc(Nc2ccc(Cl)c(Cl)c2)sc1C(=O)/C=C/c1ccc2c(c1)OCO2 | 20.2 µM (inactive) | 23.3 µM (inactive) | 16.8 µM (inactive) | 34.5 µM (inactive) | 31.6 µM (inactive) | 19.4 µM (inactive) | 31.9 µM (inactive) | 25.9 µM (inactive) | 17.8 µM (inactive) | 88.7 µM (inactive) | 20 µM (inactive) | 23.7 µM (inactive) | 31.7 µM (inactive) |  | 21.5 µM (inactive) | 14.4 µM (inactive) | 31.6 µM (inactive) | 16.9 µM (inactive) | 18.9 µM (inactive) |
| CC1CCC[P+](Cc2ccccc2)(c2ccccc2)CC1 (stereo unspecified) | > 100 µM (inactive) | > 100 µM (inactive) | > 100 µM (inactive) | > 100 µM (inactive) | 31.3 µM (inactive) | 32 µM (inactive) | 4.99 µM (inactive) |  | 15.8 µM (inactive) | > 100 µM (inactive) |  | 69.5 µM (inactive) | 41.2 µM (inactive) | 21.6 µM (inactive) | 46.5 µM (inactive) | 40.3 µM (inactive) |  | > 100 µM (inactive) | 14.8 µM (inactive) |
| C/C(=N\n1c(Cc2ccccc2)n[nH]c1=O)c1ccc([N+](=O)[O-])cc1 | > 100 µM (inactive) |  |  | 74.5 µM (inactive) | > 100 µM (inactive) | > 100 µM (inactive) | > 100 µM (inactive) | > 100 µM (inactive) | > 100 µM (inactive) | > 100 µM (inactive) | 91.8 µM (inactive) |  | > 100 µM (inactive) | > 100 µM (inactive) | > 100 µM (inactive) |  | > 100 µM (inactive) | > 100 µM (inactive) | > 100 µM (inactive) |
| CCCN(CCCC(NC(C)=O)C(=O)NCc1ccccc1)C(=O)N(C)N=O (stereo unspecified) | > 100 µM (inactive) | > 100 µM (inactive) | > 100 µM (inactive) | > 100 µM (inactive) | > 100 µM (inactive) | > 100 µM (inactive) | > 100 µM (inactive) | > 100 µM (inactive) | > 100 µM (inactive) | > 100 µM (inactive) | > 100 µM (inactive) | > 100 µM (inactive) | > 100 µM (inactive) | > 100 µM (inactive) |  | 41.3 µM (inactive) | > 100 µM (inactive) |  |  |
| CCOC(=O)/C1=C(\C)N(c2ccc(C)cc2)C(=O)c2ccccc2C(=O)c2c(O)ccc(O)c21 | 18.2 µM (inactive) |  | 14.2 µM (inactive) | 24.8 µM (inactive) | 20.6 µM (inactive) | 16.7 µM (inactive) | 18.1 µM (inactive) | 42.4 µM (inactive) | 3.66 µM (inactive) | 30.2 µM (inactive) | 16.9 µM (inactive) | 26.5 µM (inactive) |  | 28.8 µM (inactive) | 47.5 µM (inactive) | 0.634 µM (active) | 15.8 µM (inactive) | 27.7 µM (inactive) | 19.1 µM (inactive) |
| C[C@@]12CCCc3coc(c31)C(=O)c1cc3c(cc12)C(=O)C=CC3=O [XESTOQUINONE] | 17 µM (inactive) | 56.2 µM (inactive) | 12.8 µM (inactive) | 18.8 µM (inactive) | 3.61 µM (inactive) | 15.8 µM (inactive) |  |  | 15.5 µM (inactive) | 22 µM (inactive) |  | 15.7 µM (inactive) |  | 15.4 µM (inactive) | 43.8 µM (inactive) | 19.3 µM (inactive) | 16.2 µM (inactive) | 16.2 µM (inactive) | 2.38 µM (inactive) |
| Cc1ccc(S(=O)(=O)CC2CCCn3c2c(C#N)c2ccccc23)cc1 (stereo unspecified) | > 100 µM (inactive) | > 100 µM (inactive) | > 100 µM (inactive) | > 100 µM (inactive) | > 100 µM (inactive) | > 100 µM (inactive) |  | > 100 µM (inactive) | > 100 µM (inactive) | > 100 µM (inactive) | > 100 µM (inactive) | > 100 µM (inactive) | > 100 µM (inactive) | > 100 µM (inactive) | > 100 µM (inactive) | > 100 µM (inactive) | > 100 µM (inactive) | > 100 µM (inactive) |  |
| Cc1c(Cl)cccc1NC(=O)C(=O)C(C(=O)c1ccccc1-c1ccccc1)C1OC(=O)c2ccccc21 (stereo unspecified) | 16.6 µM (inactive) |  |  | 26.8 µM (inactive) | 27.9 µM (inactive) | 18.3 µM (inactive) | 12.7 µM (inactive) | 3.94 µM (inactive) |  | 22.5 µM (inactive) | 19.1 µM (inactive) | 14.7 µM (inactive) | 19 µM (inactive) | 16.1 µM (inactive) |  | 19.3 µM (inactive) | 13.5 µM (inactive) | 20.4 µM (inactive) | 16.8 µM (inactive) |
| NNC(=O)N/N=C1\C(=O)N(c2nccs2)C(=O)C(=O)C1c1nc2ccccc2s1 (stereo unspecified) | > 100 µM (inactive) |  | > 100 µM (inactive) | > 100 µM (inactive) |  | > 100 µM (inactive) | > 100 µM (inactive) | > 100 µM (inactive) | > 100 µM (inactive) | > 100 µM (inactive) | > 100 µM (inactive) | > 100 µM (inactive) | > 100 µM (inactive) | > 100 µM (inactive) | > 100 µM (inactive) | > 100 µM (inactive) | > 100 µM (inactive) | > 100 µM (inactive) |  |
| C=CCN1CCC(OC(=O)C(O)(C#CC)C2CCCC2)CC1 (stereo unspecified) | > 100 µM (inactive) | > 100 µM (inactive) | > 100 µM (inactive) | > 100 µM (inactive) |  | > 100 µM (inactive) | > 100 µM (inactive) | > 100 µM (inactive) | > 100 µM (inactive) | > 100 µM (inactive) | > 100 µM (inactive) | > 100 µM (inactive) | > 100 µM (inactive) | > 100 µM (inactive) | > 100 µM (inactive) | > 77.3 µM (inactive) | > 100 µM (inactive) | > 100 µM (inactive) |  |
